From patent US10357477B2, “Anticancer compounds” (REGENTS OF THE UNIVERSITY OF MINNESOTA, priority 2016, dated 2019)
Values after ≈ are worked out from the molar mass of the structure shown.

Columns and labels:
MIA PaCa-2 cells = test: Cell viability assay (MTT) in MIA PaCa-2 cells; assay type: cell-based; conditions: Homo sapiens, antiproliferative activity, 72 h
Outline: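 MIA PaCa-2 cells exposed 72 h at 37° C to 2-fold serial compound dilutions from 100 μM final, 0.5% DMSO, in triplicate. Viability by MTT (3 h), formazan read at 570 nm minus 650 nm; EC50 from curve fit.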

[1] = Plasma stability assay, human plasma; assay type: in vitro ADME; conditions: 37° C.
Experimental: The plasma stability assay was performed in triplicate by incubating a compound in normal mouse and human plasma at 37° C. At 0, 1, 3, 6, and 24 h, aliquots of the plasma mixture were taken and quenched with 3 volumes of acetonitrile containing an appropriate internal standard. The samples were then vortexed and centrifuged at 14,000 rpm for 5 min. The supernatants were collected and analyzed by LC-MS/MS to determine the remaining percentage at various time points.
(§1) Quantification and analysis of compounds in biological samples were carried out on an AB Sciex QTrap 5500 mass spectrometer coupled with an Agilent 1260 Infinity HPLC. The chromatographic separation of compounds was achieved using a Phenomenex Kinetex C18 column (50×2.1 mm, 2.6 μm), and MS/MS analysis was conducted using an ESI ion source with MRM detection. The MS/MS detection parameters including declustering potential (DP), entrance potential (EP), collision energy (CE), and collision cell exit potential (CXP) were optimized for each compound.

[2] = Microsomal stability assay, mouse liver microsomes; assay type: in vitro ADME; conditions: pH 7.4; mouse liver microsomes 0.5 mg/mL, 1 mM NADPH, 1 μM compound; read-out: Microsomal Stability t1/2 Mouse
Experimental: (§2) The in vitro microsomal stability assay was conducted in triplicate in mouse and human liver microsomal systems. In a typical incubation, a compound (typically 1 μM final concentration) was spiked into the reaction mixture containing 0.5 mg/mL of liver microsomal protein and 1 mM of NADPH in 0.1 M potassium phosphate buffer (pH 7.4) at 37° C. At various time points, 1 volume of reaction aliquot was taken and quenched with 3 volumes of acetonitrile with an appropriate internal standard. The samples were then vortexed and centrifuged at 14,000 rpm for 5 min. The supernatants were collected and analyzed by LC-MS/MS to determine the in vitro metabolic half-life (t1/2) and intrinsic clearance (CLint). Verapamil was used as a positive control.
as §1

[3] = Microsomal stability assay, human liver microsomes; assay type: in vitro ADME; conditions: pH 7.4; human liver microsomes 0.5 mg/mL, 1 mM NADPH, 1 μM compound; read-out: Microsomal Stability t1/2 Human
Experimental: as §2, §1

[4] = Thermodynamic solubility assay; assay type: physicochemical; conditions: aqueous buffer, thermodynamic from solid, DPBS pH=7.4, 48 h, ambient temperature
Experimental: Briefly, a saturated solution was made by adding DPBS to the solid compound. The mixture was shaken at 200 rpm for 48 h in a MaxQ 6000 orbital shaker at ambient temperature to allow equilibrium between the solid and dissolved compound. The suspension was then filtered through a 0.45 μm PVDF syringe filter and the filtrate was collected for analysis using UV spectrometry (SpectraMax M5e, Molecular Devices) at λ=240 nm.

[5] = Caco-2 permeability assay; assay type: in vitro ADME; conditions: human, pH 7.4
Experimental: Cell Culture. The human colon adenocarcinoma cell line Caco-2 was purchased from ATCC (American Type Culture Collection, Manassas, Va.), and was cultured in a humidified atmosphere of 5% CO2 at 37° C. Caco-2 cells were cultured in DMEM with 10% FBS, 1% NEAA, 1% GlutaMax and 1% penicillin and streptomycin solution. The culture medium was changed every other day during cell growth and differentiation. On achieving 80-90% confluence, the cells were rinsed with pre-warm DPBS (pH 7.4) and split using trypsin. The cells were then seeded on membranes of Millipore Millicell-24 cell culture device. The transepithelial electrical resistance (TEER) were assessed to reflect membrane integrity using a Millicells® ERS-2 (Millipore, USA). The Caco-2 cell monolayers were used for transport experiments on day 21 post-seeding with TEER values >500 Ω·cm2. Bidirectional Transport Experiments. Before the transport experiments, the cell monolayer was washed three times with HBSS. Then, the plates were incubated in fresh permeability assay buffer (HBSS containing 10 mM glucose and 20 mM HEPES, pH 7.4) at 37° C. The experiments were conducted by spiking test compounds to either the apical (AP, 0.4 mL) or basolateral side (BL, 0.8 mL), while the receiving chamber contained the corresponding volume of pre-warmed permeability assay buffer. Every experiment was repeated in duplicate, and the plates were incubated in an orbital shaker at 37° C., 50 rpm/min. To assess the drug transport, at the incubation time of 20, 40, 60 and 80 min, aliquot was removed and was immediately replenished with an equal volume of permeability assay buffer. The samples were then subjected to LC/MS/MS analysis. The apparent permeability coefficient was indicated by the absorption rate constant Papp. It could be calculated as PBA (measured in BL to AP direction) or PAB (measured in AP to BL direction), using the equation of Papp=(dQ/dt)/(A×C0). dQ/dt is the rate at which the compound appears in the receiver chamber (nmol/s), A is the surface area of the filter membrane (0.7 cm2) and C0 is the initial concentration in the donor chamber (μM). Efflux ratio (ER) was calculated by the equation of ER=PBA/PAB, where PBA is the Papp value measured in BL to AP direction, and PAB is the Papp value measured in AP to BL direction.

Structure (SMILES): CNC(=O)c1cccc(Cn2nc(C)c(NC(=O)c3ccc(COc4ccc(C(F)(F)F)cc4)cc3)c2C)c1 [Compound D9c, 3-((3,5-Dimethyl-4-(4-((4-(trifluoromethyl)phenoxy)-methyl)benzamido)-1H-pyrazol-1-yl)methyl)-N-methylbenzamide]
- EC50 (MIA PaCa-2 cells): 800 nM
- Plasma Stability (% remaining, 6 h/24 h) Human ([1]; 6 h): 99%
- Plasma Stability (% remaining, 6 h/24 h) Human ([1]; 24 h): 100%
- half-life at 1 μM [2]: 60 min
- half-life at 1 μM [3]: 34 min
- solubility at 48 h [4]: 67.3 ± 5.2 µM (≈ 36.1 µg/mL)
- Papp A→B at 80 min ([5]; apical to basolateral): 8.26 ×10⁻⁶ cm/s
- Papp B→A at 80 min ([5]; basolateral to apical): 19.3 ×10⁻⁶ cm/s
